The results in this text go back to US11884669B1, “Pyrrolo[3,2-c][1,7]naphthyridine-2-carboxylic acid compounds as CK2 inhibitors” (KING FAISAL UNIVERSITY, priority 2023, dated 2024).

One test concerns MCF7 (breast). Description: In vitro cytotoxic activity MTT assay, MCF7. Format: cell-based. Conditions: Homo sapiens, 96 hours exposure, read-out: IC50, 50% inhibition of cell proliferation. The method, then:
(§1) Compounds 1-16 were screened for their in vitro cytotoxic activity utilizing a 3-(4,5-dimethyl-thiazol-2-yl)-2,5-diphenyltetrazolium bromide (MTT) assay against selected cancer human cell lines consisting of PC3 (prostate), HCT116 (colon), A375 (melanoma), H1299 (lung), MIAPaCa-2 (pancreas), HL60 (leukemia), MCF7 (breast), MDA-MB-231 (breast) (T. Mosmann, J. Immunol. Meth., 1983, 65, 55-63). The cells were cultured at 37° C. in RMPI1640 medium supplemented with 10% fetal bovine serum, 50 IU/mL penicillin, and 50 μg/mL streptomycin in a 5% CO2 incubator. All cells were sub-cultured 3 times/week by trypsinisation. Viable cells were seeded and allowed to adhere for 12 h before a test drug was added in 96-well plates at an initial density of 1.0×10^5 cells/mL. Tumor cell lines were separately exposed to various concentrations of the tested compounds followed by incubation at a temperature of 37° C. during 96 h inside a medium of fresh RMPI 1640. Cells were subsequently incubated at 37° C. using MTT at 0.5 mg/mL during 4 h. After removal of supernatant, formazan crystals were dissolved in isopropanol and the optical density was measured at 570 nm. CX-4945 was used as a positive control.

The next test deals with HCT116 (colon). Briefly: In vitro cytotoxic activity MTT assay, HCT116. The class given is cell-based. Conditions: Homo sapiens, HCT-116, 96 hours exposure, read-out: IC50, 50% inhibition of cell proliferation. How it is done:
as §1
In general terms: Formazan colour is commonly taken as a measure of viable cells.

Test [1] addresses T1, recombinant human CK2 (RRββ-holoenzyme) (Homo sapiens, UniProt P68400).
T1 construct: purchased Millipore
Briefly: CK2 Kinase Assay (33P-ATP, filter plate). Format: biochemical. Conditions: final ATP concentration 15 μM, 10 min at 30° C.; read-out: protein kinase CK2 IC50. The method, then:
CK2 Kinase Assay was conducted using the protocol as described in Pierre F. et al; J. Med. Chem. 2011, 54, 635-654. The tested compounds in aqueous solution were added at a volume of 10 μL to a reaction mixture comprising 10 μL of assay dilution buffer (ADB; 20 mM MOPS, pH 7.2, 25 mM β-glycerol phosphate, 5 mM EGTA, 1 mM sodium orthovanadate, and 1 mM dithiothreitol), 10 μL of substrate peptide (RRRDDDSDDD, dissolved in ADB at a concentration of 1 mM), 10 μL of recombinant human CK2 (RRββ-holoenzyme, 25 ng dissolved in ADB; Millipore). Reactions were initiated by the addition of 10 μL of ATP solution (90% 75 mMMgCl2, 75 μM ATP (final ATP concentration: 15 μM) dissolved in ADB; 10% [γ-33P] ATP (stock 1mCi/100 μL; 3000 Ci/mmol (Perkin-Elmer) and maintained for 10 min at 30° C. The reactions were quenched with 100 μL of 0.75% phosphoric acid and then transferred to and filtered through a phosphor cellulose filter plate (Millipore). After washing each well five times with 0.75% phosphoric acid, the plate was dried under vacuum for 5 min and, following the addition of 15 μL of scintillation fluid to each well, the residual radioactivity was measured using a Wallac […]. The IC50 values were derived from eight concentrations of test inhibitors.

The subject of the next test is PC3 (prostate). Description: In vitro cytotoxic activity MTT assay, PC3. Format: cell-based. To be noted: Homo sapiens, 96 hours exposure, read-out: IC50, 50% inhibition of cell proliferation. The method, then:
as §1

The test system of the next test is MIAPaCa-2 (pancreas). Briefly: In vitro cytotoxic activity MTT assay, MIAPaCa-2. Format: cell-based. To be noted: Homo sapiens, MIA PaCa-2, 96 hours exposure, read-out: IC50, 50% inhibition of cell proliferation. The method, then: as §1
For another test, the system named is MDA-MB-231 (breast). Description: In vitro cytotoxic activity MTT assay, MDA-MB-231. To be noted: Homo sapiens, 96 hours exposure, read-out: IC50, 50% inhibition of cell proliferation. Format: cell-based. How it is done: as §1
In the next test the test system is A375 (melanoma). Briefly: In vitro cytotoxic activity MTT assay, A375. Format: cell-based. To be noted: Homo sapiens, A-375, 96 hours exposure, read-out: IC50, 50% inhibition of cell proliferation. How it is done:
as §1

In the next test the test system is HL60 (leukemia). Briefly: In vitro cytotoxic activity MTT assay, HL60. To be noted: Homo sapiens, HL-60, 96 hours exposure, read-out: IC50, 50% inhibition of cell proliferation. The class given is cell-based. The method, then: as §1
The subject of a further test is H1299 (lung). Briefly: In vitro cytotoxic activity MTT assay, H1299. Format: cell-based. Conditions: Homo sapiens, NCI-H1299, 96 hours exposure, read-out: IC50, 50% inhibition of cell proliferation. How it is done: as §1

T1 sequence (P68400 whole entry): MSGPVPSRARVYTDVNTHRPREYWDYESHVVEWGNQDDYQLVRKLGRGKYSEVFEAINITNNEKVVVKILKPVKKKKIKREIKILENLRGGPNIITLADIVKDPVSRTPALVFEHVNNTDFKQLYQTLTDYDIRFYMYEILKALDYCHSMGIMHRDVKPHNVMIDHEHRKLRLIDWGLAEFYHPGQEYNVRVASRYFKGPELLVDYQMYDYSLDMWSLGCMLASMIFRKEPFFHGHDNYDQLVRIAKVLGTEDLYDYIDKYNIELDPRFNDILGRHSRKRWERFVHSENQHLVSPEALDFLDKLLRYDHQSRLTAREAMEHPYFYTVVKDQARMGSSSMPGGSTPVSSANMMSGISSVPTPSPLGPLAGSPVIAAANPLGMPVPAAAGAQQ
T1 sequence (P67870 whole entry partner): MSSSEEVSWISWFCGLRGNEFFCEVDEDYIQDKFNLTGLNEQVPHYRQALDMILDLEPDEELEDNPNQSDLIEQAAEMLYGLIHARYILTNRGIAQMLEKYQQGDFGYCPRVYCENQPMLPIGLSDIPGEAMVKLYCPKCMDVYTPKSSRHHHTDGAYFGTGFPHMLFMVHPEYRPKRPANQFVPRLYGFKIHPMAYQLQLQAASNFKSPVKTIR

`O=C(O)c1cc2c(Nc3cccc(Cl)c3)nc3cnccc3c2[nH]1` [Example 1, 4-((3-chlorophenyl)amino)-1H-pyrrolo[3,2-c][1,7]naphthyridine-2-carboxylic acid]: the IC50 worked out at 3900 nM in the test with MCF7 (breast); 1100 nM with HCT116 (colon); 31 nM in [1]; 2300 nM with PC3 (prostate); 1400 nM in the test with MIAPaCa-2 (pancreas); 3500 nM with MDA-MB-231 (breast). In addition, the IC50 is 3200 nM in the test on A375 (melanoma), 2000 nM in the test with HL60 (leukemia) and 1600 nM in the test on H1299 (lung).
